Key:
α4β2 receptor = molecular target: T1, α4β2 receptor (Rattus norvegicus, UniProt P09483+P12390); test: ACh-evoked currents in α4β2 receptors expressed in Xenopus oocytes (two-electrode voltage clamp); format: cell-based; details: for normalized response (%): nef(-), n=5; for % of the original amplitude (Ach-evoked current): treatment as labelled, nefiracetam 1 µM, GF109203X 100 nM, peptides co-expressed, Mean ± SD, n = 6 to 8
T1 construct: expressed in transfected cells; host or cells: Xenopus oocytes injected with in vitro transcribed mRNA
T1 sequence (P09483 31-630): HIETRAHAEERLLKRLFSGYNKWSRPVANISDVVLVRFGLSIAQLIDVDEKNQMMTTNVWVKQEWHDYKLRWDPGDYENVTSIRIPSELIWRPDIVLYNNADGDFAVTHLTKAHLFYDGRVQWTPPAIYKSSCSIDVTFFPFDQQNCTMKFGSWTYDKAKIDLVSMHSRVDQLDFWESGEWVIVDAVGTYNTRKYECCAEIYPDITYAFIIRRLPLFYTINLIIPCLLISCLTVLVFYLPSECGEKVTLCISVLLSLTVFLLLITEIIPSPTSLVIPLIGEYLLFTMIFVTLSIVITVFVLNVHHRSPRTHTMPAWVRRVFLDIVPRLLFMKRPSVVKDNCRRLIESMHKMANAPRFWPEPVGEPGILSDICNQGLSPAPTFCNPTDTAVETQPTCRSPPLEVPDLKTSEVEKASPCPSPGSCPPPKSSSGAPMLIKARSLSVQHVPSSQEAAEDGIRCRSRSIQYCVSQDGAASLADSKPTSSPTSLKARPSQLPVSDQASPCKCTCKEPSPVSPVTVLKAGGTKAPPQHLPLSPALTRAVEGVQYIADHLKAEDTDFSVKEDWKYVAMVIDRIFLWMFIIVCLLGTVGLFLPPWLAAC
T1 sequence (P12390 25-500): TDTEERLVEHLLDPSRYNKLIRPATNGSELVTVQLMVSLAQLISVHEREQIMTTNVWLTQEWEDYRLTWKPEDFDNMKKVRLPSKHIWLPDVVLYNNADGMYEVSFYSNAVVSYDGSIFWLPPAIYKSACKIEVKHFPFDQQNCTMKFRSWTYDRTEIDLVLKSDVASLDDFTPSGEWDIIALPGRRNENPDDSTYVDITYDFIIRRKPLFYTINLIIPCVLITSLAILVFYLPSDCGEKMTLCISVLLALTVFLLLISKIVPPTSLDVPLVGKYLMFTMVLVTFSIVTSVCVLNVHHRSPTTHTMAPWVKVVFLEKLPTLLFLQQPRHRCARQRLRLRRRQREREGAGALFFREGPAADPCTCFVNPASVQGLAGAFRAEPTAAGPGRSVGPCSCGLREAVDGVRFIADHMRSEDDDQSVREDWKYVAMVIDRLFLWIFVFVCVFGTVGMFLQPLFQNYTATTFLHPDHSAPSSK
Protocol: Two-electrode voltage-clamp technique was used to record expression α4β2 or α7 receptors in oocytes. ACh (100 µM) was applied to a single oocyte in the presence or absence of α-BuTX (50 nM) or MCA (3 µM). The holding voltage was -30 or -60 mV for α4β2-nAChR or α7-nAChR, respectively. Downward directions correspond to inward currents.
(§1) mRNAs for the rat α4β2 receptor and α7 receptor, GLUR1, 2, 3 receptors, and NP152 and NP153 were constructed as described previously. Xenopus oocytes were manually separated from the ovary, and subjected to treatment with collagenase (0.5 mg/ml). Thereafter, the treated oocytes were incubated overnight in Barth's solution (in mM, 88 NaCl, 1 KCl, 2.4 NaHCO3, 0.82 MgSO4, 0.33 […], 0.41 CaCl2, and 7.5 Tris; pH 7.6). The oocytes were injected with the α4β2 or α7 receptor mRNA and incubated at 18°C. In some cases, NP152 and NP153 were co-expressed with the α4β2 and α7 receptors. The injected oocytes were incubated and transferred to a recording chamber 2-7 days after incubation and continuously superfused at room temperature (20-22°C) with a standard frog Ringer's solution [in mM: 115 NaCl, 2 KCl, 1.8 CaCl2, 5 HEPES; pH 7.0]. To remove the effect of endogenous muscarinic ACh receptor, 1 µM atropine was added to the extracellular solution. ACh-evoked currents were recorded by use of two-electrode voltage clamp techniques and an amplifier (GeneClamp-500, Axon Instrument, Inc. USA). The currents were analyzed on a microcomputer by pClamp software (Axon Instrument, Inc.; Version 6). From the results, an assessment was made as to whether nefiracetam actually acts on the nACh receptors.

[1] = tested on: glutamate release from hippocampal slices; format: cell-based, guinea pig; details: St (ES+) electrical stimulation; nefiracetam 1 µM, tetrodotoxin 0.5 µM, α-bungarotoxin 50 nM, mecamylamine 3 µM
α7 receptor = molecular target: T2, α7 receptor (Rattus norvegicus, UniProt Q05941); test: ACh-evoked currents in α7 receptors expressed in Xenopus oocytes (two-electrode voltage clamp); format: cell-based; details: for normalized response (%): nef(-), n=5; for % of the original amplitude (Ach-evoked current): treatment as labelled, nefiracetam 1 µM, GF109203X 100 nM, peptides co-expressed, Mean ± SD, n = 6 to 8
T2 construct: expressed in transfected cells; host or cells: Xenopus oocytes injected with in vitro transcribed mRNA
T2 sequence (Q05941 23-502): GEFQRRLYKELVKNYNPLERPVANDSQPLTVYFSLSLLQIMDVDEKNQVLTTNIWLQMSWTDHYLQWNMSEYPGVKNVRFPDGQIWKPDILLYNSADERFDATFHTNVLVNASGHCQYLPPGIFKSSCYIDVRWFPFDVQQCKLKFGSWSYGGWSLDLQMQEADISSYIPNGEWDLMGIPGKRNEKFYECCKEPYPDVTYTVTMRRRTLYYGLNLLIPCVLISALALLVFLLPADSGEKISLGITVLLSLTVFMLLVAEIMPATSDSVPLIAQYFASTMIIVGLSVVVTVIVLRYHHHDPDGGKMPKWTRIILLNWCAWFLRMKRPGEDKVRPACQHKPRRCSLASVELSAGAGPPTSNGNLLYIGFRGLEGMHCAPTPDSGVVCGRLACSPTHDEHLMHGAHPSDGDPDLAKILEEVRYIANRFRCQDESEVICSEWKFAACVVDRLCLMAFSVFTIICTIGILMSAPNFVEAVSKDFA
Protocol: Two-electrode voltage-clamp technique was used to record expression α4β2 or α7 receptors in oocytes. […] The holding voltage was -30 or -60 mV for α4β2-nAChR or α7-nAChR, respectively. Downward directions correspond to inward currents.
as §1

[2] = tested on: postsynaptic potentials evoked from the hippocampal CA1 region; test: Postsynaptic potentials recorded in the CA1 pyramidal cell layer of rat hippocampal slices; format: cell-based; details: Rattus norvegicus, APV 100 µM alone, -10 to -1 min before nefiracetam; Time (min) in c0; n=5; read-out: Postsynaptic potential (% of original amplitude)

SMILES: CNC1(C)C2CCC(C2)C1(C)C (stereo not drawn) [mecamylamine, reference compound]
- effect on ACh-evoked current (Fig. 3) (α4β2 receptor; MCA 3 µM, ACh 100 µM, holding voltage -30 mV): strongly inhibit
- Amount of released glutamate [1]: 2.45 ± 0.3 (c) nmol/mg protein/10min.

SMILES: CC(=O)OCC[N+](C)(C)C [ACh, reference compound]
- normalized response (%) (α4β2 receptor; ACh 0.1 µM): 0%
- normalized response (%) (α4β2 receptor; ACh 1 µM): 3%
- normalized response (%) (α4β2 receptor; ACh 10 µM): 43%
- normalized response (%) (α4β2 receptor; ACh 100 µM): 75%
- normalized response (%) (α4β2 receptor; ACh 1000 µM): 100%
- normalized response (%) (α7 receptor; ACh 0.1 µM): 0%
- normalized response (%) (α7 receptor; ACh 1 µM): 0.5%
- normalized response (%) (α7 receptor; ACh 10 µM): 1%
- normalized response (%) (α7 receptor; ACh 100 µM): 28%
- normalized response (%) (α7 receptor; ACh 1000 µM): 100%

SMILES: N[C@H](CCCP(=O)(O)O)C(=O)O [APV, D-2-amino-5-phosphonovaleric acid, reference compound]
- activity at 100 µM [2]: 87 ± 7%

SMILES: CN[C@@H]1C[C@H]2O[C@@](C)([C@@H]1OC)n1c3ccccc3c3c4c(c5c6ccccc6n2c5c31)C(=O)NC4 [Staurosporine, reference compound]
- % of the original amplitude (Ach-evoked current) (α4β2 receptor): 90 ± 8%
- % of the original amplitude (Ach-evoked current) (α7 receptor): 101 ± 8%

SMILES: Nc1nc2c(ncn2[C@@H]2O[C@H](COP(=O)(O)OP(O)(O)=S)[C@@H](O)[C@H]2O)c(=O)[nH]1 [GDPβS, reference compound]
- % of the original amplitude (Ach-evoked current) (α4β2 receptor): 96 ± 10%
- % of the original amplitude (Ach-evoked current) (α7 receptor): 100 ± 11%

SMILES: O=S(=O)(NCCNCC=Cc1ccc(Br)cc1)c1cccc2cnccc12 [H89, N-[2-(p-Bromocinnamylamino)ethyl]-5-isoquinolinesulfonamide · 2HCl, reference compound]
- % of the original amplitude (Ach-evoked current) (α4β2 receptor): 98.8 ± 12%
- % of the original amplitude (Ach-evoked current) (α7 receptor): 99.4 ± 5.8%

SMILES: CN(C)CCCn1cc(C2=C(c3c[nH]c4ccccc34)C(=O)NC2=O)c2ccccc21 [GF109203X, reference compound]
- % of the original amplitude (Ach-evoked current) (α4β2 receptor): 79.3 ± 15%
- % of the original amplitude (Ach-evoked current) (α7 receptor): 102.2 ± 9.6%

Source: EP1022029A1, “NOOTROPIC AGENT” (priority 1997, dated 1999)
